Data: ChEMBL document CHEMBL1201861, “Genomics of Drug Sensitity in Cancer screening data, Wellcome Trust Sanger Institute”

Columns and labels:
Assay in all cases: cells
ME-180 = format: functional, cell-based, Homo sapiens; details: Homo sapiens, ME-180;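 further: cell viability assay measuring growth inhibition of ME-180 cells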
Description: SANGER: Inhibition of human ME-180 cell growth in a cell viability assay.

SK-HEP1 = format: functional, cell-based, Homo sapiens, SK-HEP-1; details: Homo sapiens, SK-HEP1;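 further: cell viability readout used to quantify reduction in proliferation of human SK-HEP-1 cells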
Description: SANGER: Inhibition of human SK-HEP-1 cell growth in a cell viability assay.

Capan-2 = format: functional, cell-based, Homo sapiens; details: Homo sapiens, Capan-2;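 further: Capan-2 cell growth inhibition, read out with a viability assay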
Description: SANGER: Inhibition of human Capan-2 cell growth in a cell viability assay.

NCI-H358 = format: functional, cell-based, Homo sapiens; details: Homo sapiens, NCI-H358;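 further: growth inhibition of NCI-H358 human cells, read out with a cell viability assay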
Description: SANGER: Inhibition of human NCI-H358 cell growth in a cell viability assay.

Detroit 562 = format: functional, cell-based, Homo sapiens; details: Homo sapiens, Detroit 562;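 further: growth inhibition of human Detroit 562 cells, read out by a cell viability assay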
Description: SANGER: Inhibition of human Detroit562 cell growth in a cell viability assay.

CAL-12T = format: functional, cell-based, Homo sapiens; details: Homo sapiens, CAL-12T;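 further: growth inhibition of human CAL-12T cells, read out with a cell viability assay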
Description: SANGER: Inhibition of human CAL-12T cell growth in a cell viability assay.

HCC1806 = format: functional, cell-based, Homo sapiens; details: Homo sapiens, HCC1806;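 further: growth inhibition of the cancer cell line, determined with a cell viability assay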
Description: SANGER: Inhibition of human HCC1806 cell growth in a cell viability assay.

NCI-H1993 = format: functional, cell-based, Homo sapiens; details: Homo sapiens, NCI-H1993;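 further: growth inhibition of the cancer cell line, assessed with a cell viability assay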
Description: SANGER: Inhibition of human NCI-H1993 cell growth in a cell viability assay.

CAL-85-1 = format: functional, cell-based, Homo sapiens; details: Homo sapiens, CAL-85-1;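 further: growth inhibition of human CAL-85-1 cells, read out with a cell viability assay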
Description: SANGER: Inhibition of human CAL-85-1 cell growth in a cell viability assay.

BFTC-905 = format: functional, cell-based, Homo sapiens; details: Homo sapiens, BFTC-905
Description: SANGER: Inhibition of human BFTC-905 cell growth in a cell viability assay.

SK-OV-3 = format: functional, cell-based, Homo sapiens; details: Homo sapiens, SK-OV-3;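 further: growth inhibition of SK-OV-3 human cells, read out with a cell viability assay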
Description: SANGER: Inhibition of human SK-OV-3 cell growth in a cell viability assay.

NCI-H522 = format: functional, cell-based, Homo sapiens; details: Homo sapiens, NCI-H522;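 further: cell viability assay measuring growth inhibition of human NCI-H522 cells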
Description: SANGER: Inhibition of human NCI-H522 cell growth in a cell viability assay.

KOSC-2 = format: functional, cell-based, Homo sapiens; details: Homo sapiens, KOSC-2;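 further: growth inhibition of KOSC-2 cells, read out by a cell viability assay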
Description: SANGER: Inhibition of human KOSC-2 cell growth in a cell viability assay.

RPMI-2650 = format: functional, cell-based, Homo sapiens; details: Homo sapiens, RPMI-2650
Description: SANGER: Inhibition of human RPMI-2650 cell growth in a cell viability assay.

GP5d = format: functional, cell-based, Homo sapiens; details: Homo sapiens, GP5d;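 further: growth inhibition of human GP5d cells, read out with a cell viability assay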
Description: SANGER: Inhibition of human GP5d cell growth in a cell viability assay.

KP-N-YN = format: functional, cell-based, Homo sapiens; details: Homo sapiens, KP-N-YN;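 further: growth inhibition of KP-N-YN cells, read out with a cell viability assay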
Description: SANGER: Inhibition of human KP-N-YN cell growth in a cell viability assay.

CHP-212 = format: functional, cell-based, Homo sapiens; details: Homo sapiens, CHP-212
Description: SANGER: Inhibition of human CHP-212 cell growth in a cell viability assay.

HCC38 = format: functional, cell-based, Homo sapiens; details: Homo sapiens, HCC38;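 further: cell viability assay on the human HCC38 cell line, with IC50 marking the concentration that inhibits cell growth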
Description: SANGER: Inhibition of human HCC38 cell growth in a cell viability assay.

KYSE-150 cell line = format: functional, cell-based, Homo sapiens; details: Homo sapiens, KYSE-150;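 further: growth inhibition of human KYSE-150 cells, read out with a cell viability assay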
Description: SANGER: Inhibition of human KYSE-150 cell growth in a cell viability assay.

CAL-51 = format: functional, cell-based, Homo sapiens; details: Homo sapiens, CAL-51;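 further: human CAL-51 cell line, growth inhibition read out via a cell viability assay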
Description: SANGER: Inhibition of human CAL-51 cell growth in a cell viability assay.

NCI-H1792 = format: functional, cell-based, Homo sapiens; details: Homo sapiens, NCI-H1792;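 further: growth inhibition of human NCI-H1792 cells, read out as cell viability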
Description: SANGER: Inhibition of human NCI-H1792 cell growth in a cell viability assay.

RMG-I = format: functional, cell-based, Homo sapiens; details: Homo sapiens, RMG-I;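 further: growth inhibition of human RMG-I cells, read out with a cell viability assay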
Description: SANGER: Inhibition of human RMG-I cell growth in a cell viability assay.

A 172 = format: functional, cell-based, Homo sapiens; details: Homo sapiens, A 172;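 further: growth inhibition of A172 cells, measured with a cell viability readout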
Description: SANGER: Inhibition of human A172 cell growth in a cell viability assay.

OAW-28 = format: functional, cell-based, Homo sapiens; details: Homo sapiens, OAW-28;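 further: growth inhibition of OAW-28 cells, read out with a cell viability assay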
Description: SANGER: Inhibition of human OAW-28 cell growth in a cell viability assay.

U-251 = format: functional, cell-based, Homo sapiens; details: Homo sapiens, U-251;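 further: growth inhibition of human U-251 cells, read out through a cell viability assay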
Description: SANGER: Inhibition of human U251 cell growth in a cell viability assay.

SJRH30 = format: functional, cell-based, Homo sapiens; details: Homo sapiens, SJRH30;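 further: growth inhibition of human SJRH30 cells, read out with a cell viability assay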
Description: SANGER: Inhibition of human SJRH30 cell growth in a cell viability assay.

MIA PaCa-2 = format: functional, cell-based, Homo sapiens; details: Homo sapiens, MIA PaCa-2;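 further: growth inhibition of MIA PaCa-2 cells, read out with a cell viability assay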
Description: SANGER: Inhibition of human MIA-PaCa-2 cell growth in a cell viability assay.

MHH-ES-1 = format: functional, cell-based, Homo sapiens; details: Homo sapiens, MHH-ES-1;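 further: cell growth inhibition measured by a cell viability assay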
Description: SANGER: Inhibition of human MHH-ES-1 cell growth in a cell viability assay.

HT-1376 = format: functional, cell-based, Homo sapiens; details: Homo sapiens, HT-1376
Description: SANGER: Inhibition of human HT-1376 cell growth in a cell viability assay.

CAKI-1 = format: functional, cell-based, Homo sapiens; details: Homo sapiens, CAKI-1;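 further: growth inhibition of CAKI-1 cells, measured by a cell viability assay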
Description: SANGER: Inhibition of human CAKI-1 cell growth in a cell viability assay.

HuO9 = format: functional, cell-based, Homo sapiens; details: Homo sapiens, HuO9;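 further: growth inhibition of HuO9 cells, read out with a cell viability assay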
Description: SANGER: Inhibition of human HuO9 cell growth in a cell viability assay.

ABC-1 = format: functional, cell-based, Homo sapiens; details: Homo sapiens, ABC-1;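 further: growth inhibition of human ABC-1 cells, read out by a cell viability assay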
Description: SANGER: Inhibition of human ABC-1 cell growth in a cell viability assay.

M059J = format: functional, cell-based, Homo sapiens; details: Homo sapiens, M059J;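 further: growth inhibition of M059J cells, read out with a cell viability assay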
Description: SANGER: Inhibition of human M059J cell growth in a cell viability assay.

D-423MG = format: functional, cell-based, Homo sapiens; details: Homo sapiens, D-423MG
Description: SANGER: Inhibition of human D-423MG cell growth in a cell viability assay.

NCI-H1048 = format: functional, cell-based, Homo sapiens; details: Homo sapiens, NCI-H1048;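 further: growth inhibition of human NCI-H1048 cells, read out with a cell viability assay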
Description: SANGER: Inhibition of human NCI-H1048 cell growth in a cell viability assay.

UACC-893 = format: functional, cell-based, Homo sapiens; details: Homo sapiens, UACC-893
Description: SANGER: Inhibition of human UACC-893 cell growth in a cell viability assay.

Compound	IC50 (ME-180)	IC50 (SK-HEP1)	IC50 (Capan-2)	IC50 (NCI-H358)	IC50 (Detroit 562)	IC50 (CAL-12T)	IC50 (HCC1806)	IC50 (NCI-H1993)	IC50 (CAL-85-1)	IC50 (BFTC-905)	IC50 (SK-OV-3)	IC50 (NCI-H522)	IC50 (KOSC-2)	IC50 (RPMI-2650)	IC50 (GP5d)	IC50 (KP-N-YN)	IC50 (CHP-212)	IC50 (HCC38)	IC50 (KYSE-150 cell line)	IC50 (CAL-51)	further results
COc1cc2c(Nc3ccc(NC(=O)c4ccccc4)cc3)ncnc2cc1OCCCN1CCOCC1	> 4000 nM	> 4000 nM	> 4000 nM	> 4000 nM	1730 nM	> 4000 nM	> 4000 nM	> 4000 nM	> 4000 nM	2420 nM	> 4000 nM	> 4000 nM	> 4000 nM	> 4000 nM	> 4000 nM	> 4000 nM	1470 nM	> 4000 nM	> 4000 nM	1840 nM	IC50 (NCI-H1792): > 4000 nM; IC50 (RMG-I): > 4000 nM; IC50 (A 172): 984 nM; IC50 (OAW-28): > 4000 nM; IC50 (U-251): > 4000 nM; IC50 (SJRH30): > 4000 nM; IC50 (MIA PaCa-2): 3910 nM; IC50 (MHH-ES-1): 2130 nM; IC50 (HT-1376): > 4000 nM; IC50 (CAKI-1): > 4000 nM; IC50 (HuO9): > 4000 nM; IC50 (ABC-1): 1400 nM; IC50 (M059J): > 4000 nM; IC50 (D-423MG): > 4000 nM; IC50 (NCI-H1048): 1800 nM; IC50 (UACC-893): > 4000 nM
CC1(C)CNc2cc(NC(=O)c3cccnc3NCc3ccncc3)ccc21 [MOTESANIB]	> 2000 nM	> 2000 nM	> 2000 nM	> 2000 nM	> 2000 nM	> 2000 nM	> 2000 nM	> 2000 nM	> 2000 nM	> 2000 nM	> 2000 nM	> 2000 nM	> 2000 nM	> 2000 nM	> 2000 nM	> 2000 nM	> 2000 nM	> 2000 nM	> 2000 nM	> 2000 nM	IC50 (NCI-H1792): > 2000 nM; IC50 (RMG-I): > 2000 nM; IC50 (A 172): > 2000 nM; IC50 (OAW-28): > 2000 nM; IC50 (U-251): > 2000 nM; IC50 (SJRH30): > 2000 nM; IC50 (MIA PaCa-2): > 2000 nM; IC50 (MHH-ES-1): > 2000 nM; IC50 (HT-1376): > 2000 nM; IC50 (CAKI-1): > 2000 nM; IC50 (HuO9): > 2000 nM; IC50 (ABC-1): > 2000 nM; IC50 (M059J): > 2000 nM; IC50 (D-423MG): > 2000 nM; IC50 (NCI-H1048): > 2000 nM; IC50 (UACC-893): > 2000 nM
CCN(CC)CCCCNc1ncc2cc(-c3cc(OC)cc(OC)c3)c(NC(=O)NC(C)(C)C)nc2n1 [PD-173074]	> 2000 nM	> 2000 nM	> 2000 nM	> 2000 nM	> 2000 nM	> 2000 nM	> 2000 nM	> 2000 nM	> 2000 nM	> 2000 nM	> 2000 nM	> 2000 nM	> 2000 nM	> 2000 nM	> 2000 nM	> 2000 nM	> 2000 nM	> 2000 nM	> 2000 nM	> 2000 nM	IC50 (NCI-H1792): > 2000 nM; IC50 (RMG-I): > 2000 nM; IC50 (A 172): 1700 nM; IC50 (OAW-28): > 2000 nM; IC50 (U-251): > 2000 nM; IC50 (SJRH30): > 2000 nM; IC50 (MIA PaCa-2): > 2000 nM; IC50 (MHH-ES-1): > 2000 nM; IC50 (HT-1376): > 2000 nM; IC50 (CAKI-1): > 2000 nM; IC50 (HuO9): > 2000 nM; IC50 (ABC-1): > 2000 nM; IC50 (M059J): > 2000 nM; IC50 (D-423MG): > 2000 nM; IC50 (NCI-H1048): > 2000 nM; IC50 (UACC-893): > 2000 nM
